Source: ChEMBL document CHEMBL4311942, “Design of Trp-Rich Dodecapeptides with Broad-Spectrum Antimicrobial Potency and Membrane-Disruptive Mechanism” (J Med Chem, 2019)
Values after ≈ are worked out from the molar mass of the structure shown. Where a SMILES comes first, the peptide text is derived from it.

What was measured:
Staphylococcus aureus [1] = assay: Antibacterial activity against Staphylococcus aureus ATCC 25923 incubated for 18 to 24 hrs by broth microdilution method; type: functional
Staphylococcus aureus [2] = assay: Antibacterial activity against Staphylococcus aureus ATCC 29213 incubated for 18 to 24 hrs by broth microdilution method; type: functional
Salmonella typhimurium = assay: Antibacterial activity against Salmonella enterica serovar typhimurium C77-31 incubated for 18 to 24 hrs by broth microdilution method; type: functional, Salmonella enterica subsp. enterica serovar Typhimurium
Escherichia coli [3] = assay: Antibacterial activity against Escherichia coli UB1005 incubated for 18 to 24 hrs by broth microdilution method; type: functional
Escherichia coli [4] = assay: Antibacterial activity against Escherichia coli ATCC 25922 incubated for 18 to 24 hrs by broth microdilution method; type: functional
[5] = system: Staphylococcus epidermidis; assay: Antibacterial activity against Staphylococcus epidermidis ATCC 12228 incubated for 18 to 24 hrs by broth microdilution method; type: functional
Erythrocyte = assay: Haemolytic activity in human erythrocytes assessed as lowest concentration causing 5% hemolysis after 1 hr; type: ADME, cell-based
[6] = Therapeutic index, ratio of MHC for human RBC to geometric mean of peptide MIC for Escherichia coli ATCC 25922; type: toxicity; conditions: pooled result: one value given for 6 cell lines, strains, targets or settings, read-out: TI
[7] = (§1) Cytotoxicity against mouse RAW264.7 cells assessed as cell survival at <= 32 uM after 24 hrs by MTT assay relative to control; type: cell-based; conditions: RAW264.7 cells, up to 32 µM, read-out: Activity
Staphylococcus aureus [8] = assay: Antibacterial activity against Staphylococcus aureus ATCC 29213 incubated for 2 hrs in presence of sodium phosphate buffer at pH 2 by broth microdilution method; type: functional; conditions: ATCC 29213, 2 h
Escherichia coli [9] = assay: Antibacterial activity against Escherichia coli ATCC 25922 using preheated compound at 100 degreeC for 1 hr by broth microdilution method; type: functional; conditions: ATCC 25922, 1 h
Escherichia coli [10] = assay: Antibacterial activity against Escherichia coli ATCC 25922 in presence of NaCl by broth microdilution method; type: functional
Escherichia coli [11] = assay: Antibacterial activity against Escherichia coli ATCC 25922 in presence of KCl by broth microdilution method; type: functional
Escherichia coli [12] = assay: Antibacterial activity against Escherichia coli ATCC 25922 in presence of NH4Cl by broth microdilution method; type: functional
Escherichia coli [13] = assay: Antibacterial activity against Escherichia coli ATCC 25922 in presence of MgCl2 by broth microdilution method; type: functional
Escherichia coli [14] = assay: Antibacterial activity against Escherichia coli ATCC 25922 in presence of ZnCl2 by broth microdilution method; type: functional
Escherichia coli [15] = assay: Antibacterial activity against Escherichia coli ATCC 25922 in presence of CaCl2 by broth microdilution method; type: functional
Escherichia coli [16] = assay: Antibacterial activity against Escherichia coli ATCC 25922 in presence of FeCl3 by broth microdilution method; type: functional
Escherichia coli [17] = assay: Antibacterial activity against Escherichia coli ATCC 25922 in presence of 12.5% serum by broth microdilution method; type: functional
Escherichia coli [18] = assay: Antibacterial activity against Escherichia coli ATCC 25922 in presence of 25% serum by broth microdilution method; type: functional
Escherichia coli [19] = assay: Antibacterial activity against Escherichia coli ATCC 25922 in presence of 50% serum by broth microdilution method; type: functional
Escherichia coli [20] = assay: Antibacterial activity against Escherichia coli ATCC 25922 incubated for 2 hrs in presence of sodium phosphate buffer at pH 2 by broth microdilution method; type: functional; conditions: ATCC 25922, 2 h
Escherichia coli [21] = assay: Antibacterial activity against Escherichia coli ATCC 25922 incubated for 2 hrs in presence of sodium phosphate buffer at pH 4 by broth microdilution method; type: functional; conditions: ATCC 25922, 2 h
Escherichia coli [22] = assay: Antibacterial activity against Escherichia coli ATCC 25922 incubated for 2 hrs in presence of sodium phosphate buffer at pH 10 by broth microdilution method; type: functional; conditions: ATCC 25922, 2 h
Escherichia coli [23] = assay: Antibacterial activity against Escherichia coli ATCC 25922 incubated for 2 hrs in presence of sodium phosphate buffer at pH 12 by broth microdilution method; type: functional; conditions: ATCC 25922, 2 h
Escherichia coli [24] = assay: Antibacterial activity against Escherichia coli ATCC 25922 in presence of H202 by broth microdilution method; type: functional
Escherichia coli [25] = assay: Antibacterial activity against Escherichia coli ATCC 25922 in presence of NaBH4 by broth microdilution method; type: functional
Staphylococcus aureus [26] = assay: Antibacterial activity against Staphylococcus aureus ATCC 29213 using preheated compound at 100 degreeC for 1 hr by broth microdilution method; type: functional; conditions: ATCC 29213, 1 h
Staphylococcus aureus [27] = assay: Antibacterial activity against Staphylococcus aureus ATCC 29213 in presence of NaCl by broth microdilution method; type: functional
Staphylococcus aureus [28] = assay: Antibacterial activity against Staphylococcus aureus ATCC 29213 in presence of KCl by broth microdilution method; type: functional
Staphylococcus aureus [29] = assay: Antibacterial activity against Staphylococcus aureus ATCC 29213 in presence of NH4Cl by broth microdilution method; type: functional
Staphylococcus aureus [30] = assay: Antibacterial activity against Staphylococcus aureus ATCC 29213 in presence of MgCl2 by broth microdilution method; type: functional
Staphylococcus aureus [31] = assay: Antibacterial activity against Staphylococcus aureus ATCC 29213 in presence of ZnCl2 by broth microdilution method; type: functional
Staphylococcus aureus [32] = assay: Antibacterial activity against Staphylococcus aureus ATCC 29213 in presence of CaCl2 by broth microdilution method; type: functional
Staphylococcus aureus [33] = assay: Antibacterial activity against Staphylococcus aureus ATCC 29213 in presence of FeCl3 by broth microdilution method; type: functional
Staphylococcus aureus [34] = assay: Antibacterial activity against Staphylococcus aureus ATCC 29213 in presence of 12.5% serum by broth microdilution method; type: functional
Staphylococcus aureus [35] = assay: Antibacterial activity against Staphylococcus aureus ATCC 29213 in presence of 25% serum by broth microdilution method; type: functional
Staphylococcus aureus [36] = assay: Antibacterial activity against Staphylococcus aureus ATCC 29213 in presence of 50% serum by broth microdilution method; type: functional
Staphylococcus aureus [37] = assay: Antibacterial activity against Staphylococcus aureus ATCC 29213 incubated for 2 hrs in presence of sodium phosphate buffer at pH 4 by broth microdilution method; type: functional; conditions: ATCC 29213, 2 h
Staphylococcus aureus [38] = assay: Antibacterial activity against Staphylococcus aureus ATCC 29213 incubated for 2 hrs in presence of sodium phosphate buffer at pH 10 by broth microdilution method; type: functional; conditions: ATCC 29213, 2 h
Staphylococcus aureus [39] = assay: Antibacterial activity against Staphylococcus aureus ATCC 29213 incubated for 2 hrs in presence of sodium phosphate buffer at pH 12 by broth microdilution method; type: functional; conditions: ATCC 29213, 2 h
Staphylococcus aureus [40] = assay: Antibacterial activity against Staphylococcus aureus ATCC 29213 in presence of H202 by broth microdilution method; type: functional
Staphylococcus aureus [41] = assay: Antibacterial activity against Staphylococcus aureus ATCC 29213 in presence of NaBH4 by broth microdilution method; type: functional
RAW264.7 = assay: as §1; type: cell-based; conditions: raw264.7, 24 h

CC(C)C[C@H](NC(=O)[C@H](CCCNC(=N)N)NC(=O)[C@H](CCCCN)NC(=O)[C@H](CCCNC(=N)N)NC(=O)[C@@H](NC(=O)[C@H](CCCCN)NC(=O)[C@H](CCCCN)NC(=O)[C@H](CCCNC(=N)N)NC(=O)[C@H](CC(C)C)NC(=O)[C@H](CCCNC(=N)N)NC(=O)[C@@H](N)CCCNC(=N)N)[C@@H](C)O)C(=O)N[C@@H](CCCCN)C(N)=O (H-RRLRKKTRKRLK-NH2) showed an MIC (Staphylococcus aureus [1]) greater than 128 µM, an MIC (Staphylococcus aureus [2]) greater than 128 µM and an MIC (Salmonella typhimurium) greater than 128 µM. For the same compound, the MIC (Escherichia coli [3]) was 64 µM (≈ 105 µg/mL), the MIC (Escherichia coli [4]) was greater than 128 µM and the MIC [5] was greater than 128 µM. For the same compound, the MHC (Erythrocyte) was greater than 128 µM, the selectivity ratio [6] was 1.26 and the viability at 24 h [7] was no less than 70%. It also gave an MIC (Staphylococcus aureus [8]) greater than 128 µM, an MIC (Escherichia coli [9]) greater than 128 µM and an MIC (Escherichia coli [10]) greater than 128 µM. The MIC (Escherichia coli [11]) was greater than 128 µM, the MIC (Escherichia coli [12]) was greater than 128 µM and the MIC (Escherichia coli [13]) was greater than 128 µM. It also gave an MIC (Escherichia coli [14]) greater than 128 µM, an MIC (Escherichia coli [15]) greater than 128 µM and an MIC (Escherichia coli [16]) greater than 128 µM. The MIC (Escherichia coli [17]) was greater than 128 µM, the MIC (Escherichia coli [18]) was greater than 128 µM and the MIC (Escherichia coli [19]) was greater than 128 µM. It also gave an MIC (Escherichia coli [20]) greater than 128 µM, an MIC (Escherichia coli [21]) greater than 128 µM and an MIC (Escherichia coli [22]) greater than 128 µM. For the same compound, the MIC (Escherichia coli [23]) was greater than 128 µM, the MIC (Escherichia coli [24]) was greater than 128 µM and the MIC (Escherichia coli [25]) was greater than 128 µM. It also gave an MIC (Staphylococcus aureus [26]) greater than 128 µM, an MIC (Staphylococcus aureus [27]) greater than 128 µM and an MIC (Staphylococcus aureus [28]) greater than 128 µM. For the same compound, the MIC (Staphylococcus aureus [29]) was greater than 128 µM, the MIC (Staphylococcus aureus [30]) was greater than 128 µM and the MIC (Staphylococcus aureus [31]) was greater than 128 µM. For the same compound, the MIC (Staphylococcus aureus [32]) was greater than 128 µM, the MIC (Staphylococcus aureus [33]) was greater than 128 µM and the MIC (Staphylococcus aureus [34]) was greater than 128 µM. For the same compound, the MIC (Staphylococcus aureus [35]) was greater than 128 µM, the MIC (Staphylococcus aureus [36]) was greater than 128 µM and the MIC (Staphylococcus aureus [37]) was greater than 128 µM. The MIC (Staphylococcus aureus [38]) was greater than 128 µM, the MIC (Staphylococcus aureus [39]) was greater than 128 µM and the MIC (Staphylococcus aureus [40]) was greater than 128 µM. The MIC (Staphylococcus aureus [41]) was greater than 128 µM.
CC(C)C[C@H](NC(=O)[C@H](Cc1c[nH]c2ccccc12)NC(=O)[C@H](CCCCN)NC(=O)[C@H](CCCNC(=N)N)NC(=O)[C@@H](NC(=O)[C@H](Cc1c[nH]c2ccccc12)NC(=O)[C@H](CCCCN)NC(=O)[C@H](CCCNC(=N)N)NC(=O)[C@H](CC(C)C)NC(=O)[C@H](Cc1c[nH]c2ccccc12)NC(=O)[C@@H](N)CCCNC(=N)N)[C@@H](C)O)C(=O)N[C@@H](CCCCN)C(N)=O (H-RWLRKWTRKWLK-NH2) gave an MIC (Staphylococcus aureus [1]) of 16 µM (≈ 28.1 µg/mL), an MIC (Staphylococcus aureus [2]) of 8 µM (≈ 14 µg/mL) and an MIC (Salmonella typhimurium) of 16 µM (≈ 28.1 µg/mL). The MIC (Escherichia coli [3]) was 4 µM (≈ 7.02 µg/mL), the MIC (Escherichia coli [4]) was 4 µM (≈ 7.02 µg/mL) and the MIC [5] was 8 µM (≈ 14 µg/mL). For the same compound, the MHC (Erythrocyte) was greater than 128 µM, the selectivity ratio [6] was 32 and the Activity (RAW264.7) was “Non-Toxic”.
